From patent publication US6555114B1, “Immunodominant human T-cell epitopes of hepatitis C virus” (Innogenetics N.V., priority 1993, dated 2003)

Key:
[1] = test system: PBMC's from 18 healthy control subjects; assay: T cell proliferation assay with PBMC of healthy control subjects; format: cell-based, human; details: 17 control subjects, 23 proliferation assays
Description: As controls for the specificity of the lymphoproliferative responses, 18 healthy individuals aged 25-58 years (mean 38.6), 10 males and 8 females were selected. These subjects were negative for HCV antibodies and HCV-RNA.
The medium used for all cell cultures consisted of RPMI 1640 supplemented with 25 mM HEPES, 2 mM L-glutamine, 50 U/ml penicillin and 50 μg/ml streptomycin (all from Gibco Europe, Gent, Belgium), 5×10^−5 M 2-mercaptoethanol (Sigma, St. Louis, Mo.) and 10% heat-inactivated pooled human AB serum. This AB serum was obtained from healthy blood donors with blood group AB^+ and was only used when antibodies to HCV and HCV-RNA were absent. This “complemented” RPMI 1640 medium will hereafter be designated “complete medium”.
PBMC were isolated from heparinized venous blood by isopycnic density centrifugation on Ficoll Hypaque (Lymphoprep, Nyegaard, Denmark) and suspended in complete medium. […] PBMC in 200 μl of complete medium were cultured in 96 well round-bottomed microplates (Falcon Plastics) in the absence (unstimulated controls) or presence of varying concentrations of antigens for 5 days at 37° C. in an atmosphere of 5% CO2 in air. 0.5 μCi (^3H)-thymidine was then added to each well and 16 to 20 h later the cultures were harvested onto glass fiber filters using a multichannel cell harvester (PHD, Cambridge, Mass.) to measure the incorporation of (^3H)-thymidine by liquid scintillation counting in an LKB-Wallac 8100 counter (LKB, Bromma, Sweden). Results are expressed as stimulation index (SI; mean cpm of antigen-stimulated cultures/mean cpm of control cultures). Proliferation was considered positive when stimulation index was >3. In some figures the results are expressed as cpm (mean cpm of antigen-stimulated cultures—mean cpm of control cultures). Standard deviations of the mean cpm of triplicate cultures were consistently below 10%.
To analyze and summarize the results of 135 assays performed in the 32 HCV patients, we have chosen to consider the response of an individual patient to a particular antigen preparation (peptide pools 1 to 9, NS1-5*, NS1-7* or NS3 protein) as significant when it induces SI's 3 in at least half of the assays performed. The results shown in Table 4 have been obtained using this scoring method. […] The start of the Interferon therapy serves as the reference point, week 0. None of the patients responded to all the antigens. PBMC's from 13 of 18 (72%) clinical responders and 12 of 14 (85%) non-responders proliferated in response to at least one antigen preparation. All but one antigen preparation, peptide pool 8, induced a proliferative response in at least one subject. The most frequent responses were to peptide pools 2 and 3. Whereas both interferon-responders and non-responders proliferated equally well to peptide pool 2 (56% and 57%, respectively), non-responders reacted less well to peptide pool 3 (29% or 4 of 14) than responders (44% or 8 of 18). […] Clinical non-responders to interferon therapy also reacted more frequently (57 or 8 of 14) upon stimulation with the NS3 protein than responders (24% or 4 of 17). However, none of these differences in proliferative response rates to peptide pools 3, 5 and 9 or to NS3 protein reached statistical significance ([…] in ^2-test). […] Indeed, 8 of 17 responders recognized one or both peptides while none of the non-responders did so. A summary of the results of all these proliferation assays is provided in FIG. 2, in which the response rates of the HCV patients as well as 18 healthy control subjects towards the 12 antigen preparations. Indeed, to establish the relevance of the proliferative responses observed in HCV patients, PBMC's from 18 healthy control subjects were stimulated with the same antigen preparations. Overall, 27 assays were performed: a single assay in 10 subjects, two in 7 volunteers and 3 in one individual. In 12 control subjects none of the antigens induced a proliferative response. […]

[2] = test system: PBMC from 32 patients with chronic HCV; assay: T cell proliferation assay ((3H)-thymidine incorporation, stimulation index) with PBMC of chronic HCV patients; format: cell-based, human
[3] = patient 626, αIFN responder (R), week 14 of αIFN therapy
[4] = patient 627, αIFN non-responder (NR), week 54 of αIFN therapy
[5] = patient 636, αIFN responder (R), week 28 of αIFN therapy
[6] = patient 637, αIFN non-responder (NR), week 45 of αIFN therapy

| Sequence | number of control subjects that recognized the single peptide [1] | share of control subjects that recognized the single peptide [1] [%] | stimulation index (SI), T-cell recognition ([2]; patient 620, αIFN non-responder (NR), week 20 of αIFN therapy) | stimulation index (SI), T-cell recognition [2, 3] | stimulation index (SI), T-cell recognition [2, 4] | stimulation index (SI), T-cell recognition [2, 5] | stimulation index (SI), T-cell recognition [2, 6] | lymphoproliferative response (LPR) to peptide pools and single peptides ([2]; patient 639, IFN responder, LPR to pools 2 and/or 3, pools 4 assays, single peptides 2 assays) |
| --- | --- | --- | --- | --- | --- | --- | --- | --- |
| LLSCLTVPASAYQVRNSTGL [C31] | 1 | 6 | — (Only SI equal or greater than 3 are shown.) | — (Only SI equal or greater than 3 are shown.) | — (Only SI equal or greater than 3 are shown.) | — (Only SI equal or greater than 3 are shown.) | — (Only SI equal or greater than 3 are shown.) | + (significant when it induces SI's 3 in at least half of the assays performed) |
| LLSPRGSRPSWGPTDPRRRS (hepatitis C virus) [C17] | 2 | 12 |  | — (Only SI equal or greater than 3 are shown.) | — (Only SI equal or greater than 3 are shown.) | — (Only SI equal or greater than 3 are shown.) | — (Only SI equal or greater than 3 are shown.) |  |
